Results reported in ChEMBL document CHEMBL3885881, “DrugMatrix”.

Species: Rattus norvegicus
Assay: DrugMatrix - Regimen: Daily Repeat
Type: toxicity, organism-based, Sprague-Dawley
Design: regimen Daily Repeat, gender Male, age 6-8 weeks
Conditions: in vivo, po, route oral GAVAGE, vehicle .5 % CMC; for ABSOLUTE BASOPHIL / ABSOLUTE EOSINOPHIL / ABSOLUTE LYMPHOCYTE / ABSOLUTE MONOCYTE / ABSOLUTE SEGMENTED NEUTROPHIL / BASOPHIL / EOSINOPHIL / ERYTHROCYTE COUNT / HEMATOCRIT / HEMOGLOBIN / LEUKOCYTE COUNT / LYMPHOCYTE / MEAN CORPUSCULAR HEMOGLOBIN / MEAN CORPUSCULAR HEMOGLOBIN CONCENTRATION / MEAN CORPUSCULAR VOLUME / MONOCYTE / NEUTROPHIL / NUCLEATED RED BLOOD CELLS / PLATELET COUNT: tissue Blood; for ALANINE AMINOTRANSFERASE / ALBUMIN / ALKALINE PHOSPHATASE / ASPARTATE AMINOTRANSFERASE / BLOOD UREA NITROGEN / CARBON DIOXIDE / CHLORIDE / CHOLESTEROL / CREATINE PHOSPHOKINASE / CREATININE / GLUCOSE / LACTATE DEHYDROGENASE / LIPASE / PHOSPHORUS / POTASSIUM / SODIUM / TOTAL BILIRUBIN / TOTAL PROTEIN / URIC ACID: tissue Plasma
[1] = 29 mg/kg, 120 h, dose level Low, time 5 day
[2] = 400 mg/kg, 72 h, dose level High, time 3 day
[3] = 400 mg/kg, 120 h, dose level High, time 5 day

Question: How did the “ABSOLUTE BASOPHIL” value [1] turn out when `NC(=O)NC(=O)Cc1ccccc1` [PHENACEMIDE] was run?
Answer: 0 CELLS/uL

Question: What about the “ABSOLUTE EOSINOPHIL” value [1] of the same molecule?
Answer: 29.33 CELLS/uL

Question: And the “ABSOLUTE LYMPHOCYTE” value [1]?
Answer: 6627.33 CELLS/uL

Question: What about the “ABSOLUTE MONOCYTE” value [1] of the same molecule?
Answer: 106 CELLS/uL

Question: What about the “ABSOLUTE SEGMENTED NEUTROPHIL” value [1] of the same molecule?
Answer: 904 CELLS/uL

Question: And the BASOPHIL [1]?
Answer: 0%

Question: What about the EOSINOPHIL [1] of the same molecule?
Answer: 0.33%

Question: And the “ERYTHROCYTE COUNT” value [1]?
Answer: 5.3 x10E6/uL

Question: What about the HEMATOCRIT [1] of the same molecule?
Answer: 32%

Question: What about the HEMOGLOBIN [1] of the same molecule?
Answer: 12.6 G/DL

Question: What about the “LEUKOCYTE COUNT” value [1] of the same molecule?
Answer: 7.67 x10E3/uL

Question: And the LYMPHOCYTE [1]?
Answer: 86%

Question: What about the “MEAN CORPUSCULAR HEMOGLOBIN” value [1] of the same molecule?
Answer: 23.8 pg

Question: What about the “MEAN CORPUSCULAR HEMOGLOBIN CONCENTRATION” value [1] of the same molecule?
Answer: 39.37 G/DL

Question: What about the “MEAN CORPUSCULAR VOLUME” value [1] of the same molecule?
Answer: 60.37 fL

Question: What about the MONOCYTE [1] of the same molecule?
Answer: 1.33%

Question: And the NEUTROPHIL [1]?
Answer: 12.33%

Question: What about the “NUCLEATED RED BLOOD CELLS” value [1] of the same molecule?
Answer: 0 /100WBC

Question: And the “PLATELET COUNT” value [1]?
Answer: 1108.33 x10E3/uL

Question: And the “ALANINE AMINOTRANSFERASE” value [1]?
Answer: 42.67 u/L

Question: And the ALBUMIN [1]?
Answer: 4.13 G/DL

Question: What about the “ALKALINE PHOSPHATASE” value [1] of the same molecule?
Answer: 433.33 u/L

Question: What about the “ASPARTATE AMINOTRANSFERASE” value [1] of the same molecule?
Answer: 75.33 u/L

Question: And the “BLOOD UREA NITROGEN” value [1]?
Answer: 15.33 mg/dL

Question: What about the “CARBON DIOXIDE” value [1] of the same molecule?
Answer: 25.67 mmol/L

Question: What about the CHLORIDE [1] of the same molecule?
Answer: 102.33 MEQ/L

Question: And the CHOLESTEROL [1]?
Answer: 82.67 mg/dL

Question: What about the “CREATINE PHOSPHOKINASE” value [1] of the same molecule?
Answer: 189.67 u/L

Question: And the CREATININE [1]?
Answer: 0.28 mg/dL

Question: What about the GLUCOSE [1] of the same molecule?
Answer: 176.33 mg/dL

Question: And the “LACTATE DEHYDROGENASE” value [1]?
Answer: 163.33 u/L

Question: And the LIPASE [1]?
Answer: 10 u/L

Question: What about the PHOSPHORUS [1] of the same molecule?
Answer: 11.93 mg/dL

Question: What about the POTASSIUM [1] of the same molecule?
Answer: 5.88 MEQ/L

Question: What about the SODIUM [1] of the same molecule?
Answer: 145.3 MEQ/L

Question: And the “TOTAL BILIRUBIN” value [1]?
Answer: 0.1 mg/dL

Question: What about the “TOTAL PROTEIN” value [1] of the same molecule?
Answer: 6.07 G/DL

Question: And the “URIC ACID” value [1]?
Answer: 1.5 mg/dL

Question: And the “ABSOLUTE BASOPHIL” value [2]?
Answer: 0 CELLS/uL

Question: And the “ABSOLUTE EOSINOPHIL” value [2]?
Answer: 62.33 CELLS/uL

Question: And the “ABSOLUTE LYMPHOCYTE” value [2]?
Answer: 7750.67 CELLS/uL

Question: And the “ABSOLUTE MONOCYTE” value [2]?
Answer: 54.67 CELLS/uL

Question: What about the “ABSOLUTE SEGMENTED NEUTROPHIL” value [2] of the same molecule?
Answer: 1099 CELLS/uL

Question: What about the BASOPHIL [2] of the same molecule?
Answer: 0%

Question: What about the EOSINOPHIL [2] of the same molecule?
Answer: 0.67%

Question: What about the “ERYTHROCYTE COUNT” value [2] of the same molecule?
Answer: 5.14 x10E6/uL

Question: And the HEMATOCRIT [2]?
Answer: 31.23%

Question: And the HEMOGLOBIN [2]?
Answer: 11.97 G/DL

Question: And the “LEUKOCYTE COUNT” value [2]?
Answer: 8.97 x10E3/uL

Question: And the LYMPHOCYTE [2]?
Answer: 86.67%

Question: What about the “MEAN CORPUSCULAR HEMOGLOBIN” value [2] of the same molecule?
Answer: 23.33 pg

Question: And the “MEAN CORPUSCULAR HEMOGLOBIN CONCENTRATION” value [2]?
Answer: 38.33 G/DL

Question: And the “MEAN CORPUSCULAR VOLUME” value [2]?
Answer: 60.87 fL

Question: What about the MONOCYTE [2] of the same molecule?
Answer: 0.67%

Question: What about the NEUTROPHIL [2] of the same molecule?
Answer: 12%

Question: And the “NUCLEATED RED BLOOD CELLS” value [2]?
Answer: 0.67 /100WBC

Question: And the “PLATELET COUNT” value [2]?
Answer: 1052.67 x10E3/uL

Question: What about the “ALANINE AMINOTRANSFERASE” value [2] of the same molecule?
Answer: 54 u/L

Question: What about the ALBUMIN [2] of the same molecule?
Answer: 4.33 G/DL

Question: What about the “ALKALINE PHOSPHATASE” value [2] of the same molecule?
Answer: 480.33 u/L

Question: And the “ASPARTATE AMINOTRANSFERASE” value [2]?
Answer: 86 u/L

Question: And the “BLOOD UREA NITROGEN” value [2]?
Answer: 17 mg/dL

Question: And the “CARBON DIOXIDE” value [2]?
Answer: 30 mmol/L

Question: And the CHLORIDE [2]?
Answer: 104 MEQ/L

Question: What about the CHOLESTEROL [2] of the same molecule?
Answer: 77.67 mg/dL

Question: What about the “CREATINE PHOSPHOKINASE” value [2] of the same molecule?
Answer: 137.33 u/L

Question: And the CREATININE [2]?
Answer: 0.47 mg/dL

Question: What about the GLUCOSE [2] of the same molecule?
Answer: 160.67 mg/dL

Question: And the “LACTATE DEHYDROGENASE” value [2]?
Answer: 98.33 u/L

Question: And the LIPASE [2]?
Answer: 11 u/L

Question: And the PHOSPHORUS [2]?
Answer: 13.1 mg/dL

Question: And the POTASSIUM [2]?
Answer: 5.91 MEQ/L

Question: And the SODIUM [2]?
Answer: 148.57 MEQ/L

Question: What about the “TOTAL BILIRUBIN” value [2] of the same molecule?
Answer: 0.13 mg/dL

Question: And the “TOTAL PROTEIN” value [2]?
Answer: 6 G/DL

Question: And the “URIC ACID” value [2]?
Answer: 1.17 mg/dL

Question: What about the “ABSOLUTE BASOPHIL” value [3] of the same molecule?
Answer: 0 CELLS/uL

Question: What about the “ABSOLUTE EOSINOPHIL” value [3] of the same molecule?
Answer: 0 CELLS/uL

Question: What about the “ABSOLUTE LYMPHOCYTE” value [3] of the same molecule?
Answer: 9516.67 CELLS/uL

Question: What about the “ABSOLUTE MONOCYTE” value [3] of the same molecule?
Answer: 47 CELLS/uL

Question: What about the “ABSOLUTE SEGMENTED NEUTROPHIL” value [3] of the same molecule?
Answer: 1103 CELLS/uL

Question: And the BASOPHIL [3]?
Answer: 0%

Question: What about the EOSINOPHIL [3] of the same molecule?
Answer: 0%

Question: What about the “ERYTHROCYTE COUNT” value [3] of the same molecule?
Answer: 5.74 x10E6/uL

Question: What about the HEMATOCRIT [3] of the same molecule?
Answer: 34.53%

Question: And the HEMOGLOBIN [3]?
Answer: 13.23 G/DL

Question: And the “LEUKOCYTE COUNT” value [3]?
Answer: 10.67 x10E3/uL

Question: What about the LYMPHOCYTE [3] of the same molecule?
Answer: 88.67%

Question: What about the “MEAN CORPUSCULAR HEMOGLOBIN” value [3] of the same molecule?
Answer: 23.07 pg

Question: What about the “MEAN CORPUSCULAR HEMOGLOBIN CONCENTRATION” value [3] of the same molecule?
Answer: 38.33 G/DL

Question: What about the “MEAN CORPUSCULAR VOLUME” value [3] of the same molecule?
Answer: 60.23 fL

Question: What about the MONOCYTE [3] of the same molecule?
Answer: 0.33%

Question: And the NEUTROPHIL [3]?
Answer: 11%

Question: What about the “NUCLEATED RED BLOOD CELLS” value [3] of the same molecule?
Answer: 0 /100WBC

Question: And the “PLATELET COUNT” value [3]?
Answer: 1161.33 x10E3/uL

Question: And the “ALANINE AMINOTRANSFERASE” value [3]?
Answer: 47 u/L

Question: What about the ALBUMIN [3] of the same molecule?
Answer: 4.43 G/DL

Question: What about the “ALKALINE PHOSPHATASE” value [3] of the same molecule?
Answer: 491.67 u/L

Question: What about the “ASPARTATE AMINOTRANSFERASE” value [3] of the same molecule?
Answer: 84.33 u/L

Question: And the “BLOOD UREA NITROGEN” value [3]?
Answer: 22 mg/dL

Question: What about the “CARBON DIOXIDE” value [3] of the same molecule?
Answer: 24.67 mmol/L

Question: What about the CHLORIDE [3] of the same molecule?
Answer: 105 MEQ/L

Question: What about the CHOLESTEROL [3] of the same molecule?
Answer: 64 mg/dL

Question: What about the “CREATINE PHOSPHOKINASE” value [3] of the same molecule?
Answer: 157 u/L

Question: And the CREATININE [3]?
Answer: 0.73 mg/dL

Question: What about the GLUCOSE [3] of the same molecule?
Answer: 176.33 mg/dL

Question: What about the “LACTATE DEHYDROGENASE” value [3] of the same molecule?
Answer: 96.33 u/L

Question: What about the LIPASE [3] of the same molecule?
Answer: 8.67 u/L

Question: What about the PHOSPHORUS [3] of the same molecule?
Answer: 12.63 mg/dL

Question: What about the POTASSIUM [3] of the same molecule?
Answer: 6.59 MEQ/L

Question: And the SODIUM [3]?
Answer: 146.77 MEQ/L

Question: What about the “TOTAL BILIRUBIN” value [3] of the same molecule?
Answer: 0.1 mg/dL

Question: What about the “TOTAL PROTEIN” value [3] of the same molecule?
Answer: 5.97 G/DL

Question: What about the “URIC ACID” value [3] of the same molecule?
Answer: 1.8 mg/dL
